Experimental data taken from ChEMBL document CHEMBL1201862, “PubChem BioAssay data set” (2004).
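Briefly, cells in 96-well plates were exposed to five compound concentrations for 48 h, and endpoints were estimated by linear interpolation. The concentration for 50% growth inhibition is given as GI50.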 Active and inactive are the calls of the source. Rule as the data show it: active = GI50 up to about 1.1 µM and inactive = higher.

Columns and labels:
Test in all cases: NCI anticancer screen, dose series, 48 h
NCI-H460 = test system: NCI-H460
OVCAR-8 = test system: OVCAR-8
NCI-H522 = test system: NCI-H522
TK-10 = test system: TK-10
HCT-116 = test system: HCT-116
SR = test system: SR
CCRF-CEM = test system: CCRF-CEM
NCI-H226 = test system: NCI-H226
SK-MEL-5 = test system: SK-MEL-5
SNB-75 = test system: SNB-75
A549 = test system: A549
786-0 = test system: 786-0
SK-OV-3 = test system: SK-OV-3
SF-268 = test system: SF-268
RPMI-8226 = test system: RPMI-8226
SF-295 = test system: SF-295
UACC-257 = test system: UACC-257

Measured: GI50

O=C(N/N=C1/C(=O)N(c2ccc(Cl)cc2Cl)C(=O)C(=O)C1c1nc2ccccc2o1)c1ccccc1O (centres undefined)
inactive: NCI-H460 44.8 µM | OVCAR-8 60.4 µM | NCI-H522 30.8 µM | TK-10 38.9 µM | HCT-116 37.2 µM | SR 47.2 µM | CCRF-CEM 47.6 µM | NCI-H226 > 100 µM | SK-MEL-5 19 µM | SNB-75 43.3 µM | A549 33 µM | 786-0 51.6 µM | SK-OV-3 33 µM | SF-268 41.2 µM | RPMI-8226 43.4 µM

CCOc1ccc(NC(=O)CC2SC(Nc3ccc(Cl)cc3)=NC2=O)cc1 (centres undefined)
inactive: NCI-H460 > 100 µM | SF-295 > 100 µM | OVCAR-8 49.7 µM | NCI-H522 > 10 µM | TK-10 > 100 µM | CCRF-CEM 18.3 µM | NCI-H226 > 100 µM | UACC-257 > 100 µM | SK-MEL-5 > 100 µM | SNB-75 29.8 µM | A549 > 100 µM | 786-0 > 100 µM | SK-OV-3 > 100 µM | SF-268 > 100 µM | RPMI-8226 58.6 µM

COC(=O)[C@H]1CC(=O)C=C2CCCC21 (some centres undefined)
inactive: NCI-H460 > 100 µM | SF-295 > 100 µM | OVCAR-8 > 100 µM | NCI-H522 > 100 µM | TK-10 > 100 µM | HCT-116 > 100 µM | CCRF-CEM > 100 µM | UACC-257 > 100 µM | SK-MEL-5 > 100 µM | SNB-75 > 100 µM | A549 > 100 µM | 786-0 > 100 µM | SK-OV-3 > 100 µM | SF-268 > 100 µM | RPMI-8226 > 100 µM

O=c1/c(=C/c2ccc3c(c2)OCO3)sc2nnc(Cc3ccccc3)n12
inactive: NCI-H460 > 100 µM | SF-295 > 100 µM | OVCAR-8 > 100 µM | NCI-H522 92.3 µM | TK-10 > 100 µM | HCT-116 > 100 µM | CCRF-CEM 81.5 µM | NCI-H226 > 100 µM | UACC-257 13.1 µM | SK-MEL-5 > 100 µM | SNB-75 61.1 µM | A549 > 100 µM | 786-0 > 100 µM | SK-OV-3 > 100 µM | SF-268 > 100 µM | RPMI-8226 34.5 µM

COc1ccccc1-c1cc(=O)c2ccccc2[nH]1
inactive: NCI-H460 > 100 µM | SF-295 40 µM | OVCAR-8 > 100 µM | NCI-H522 33.9 µM | TK-10 > 100 µM | HCT-116 > 100 µM | SR 55.1 µM | CCRF-CEM 66.7 µM | NCI-H226 70.1 µM | UACC-257 > 100 µM | SNB-75 55.7 µM | A549 54.3 µM | 786-0 > 100 µM | SK-OV-3 73.6 µM | SF-268 > 100 µM | RPMI-8226 70 µM

C1=NN(Cc2ccccc2)C(N(Cc2ccccc2)Cc2ccccc2)N1 (centres undefined)
inactive: NCI-H460 18.1 µM | SF-295 14.5 µM | OVCAR-8 23.9 µM | NCI-H522 15.7 µM | TK-10 29.3 µM | HCT-116 9.31 µM | CCRF-CEM 12.2 µM | NCI-H226 18.5 µM | UACC-257 16.7 µM | SK-MEL-5 14.2 µM | SNB-75 23.1 µM | A549 16.3 µM | 786-0 17.8 µM | SK-OV-3 15.4 µM | SF-268 21.3 µM | RPMI-8226 3.9 µM

C=C1C(=O)OC2(C)C3CCC(C3)C12 (centres undefined)
inactive: NCI-H460 33 µM | SF-295 > 100 µM | OVCAR-8 36 µM | NCI-H522 21.7 µM | TK-10 36.3 µM | HCT-116 37.6 µM | SR 29.6 µM | CCRF-CEM 24.8 µM | NCI-H226 > 100 µM | SK-MEL-5 87.1 µM | SNB-75 47.1 µM | A549 > 100 µM | 786-0 47.9 µM | SK-OV-3 > 100 µM | SF-268 69.2 µM | RPMI-8226 34.4 µM

COC(=O)C1(C)C=C(Nc2ccccc2)C(=O)N1c1ccccc1 (centres undefined)
inactive: NCI-H460 > 100 µM | SF-295 > 100 µM | OVCAR-8 > 100 µM | NCI-H522 > 100 µM | TK-10 > 100 µM | HCT-116 > 100 µM | CCRF-CEM > 100 µM | NCI-H226 > 100 µM | UACC-257 > 100 µM | SK-MEL-5 > 100 µM | A549 > 100 µM | 786-0 > 100 µM | SK-OV-3 > 100 µM | SF-268 > 100 µM | RPMI-8226 > 100 µM

CCOc1ccc(N2C(=O)C3c4[nH]c5ccccc5c4C4CCC(C(C)(C)C)CC4C3C2=O)cc1 (centres undefined)
inactive: SF-295 > 100 µM | OVCAR-8 97.1 µM | NCI-H522 66.7 µM | HCT-116 49.2 µM | SR 42.8 µM | CCRF-CEM 10.3 µM | NCI-H226 56.5 µM | UACC-257 > 100 µM | SK-MEL-5 > 100 µM | SNB-75 > 100 µM | A549 62.4 µM | 786-0 50.6 µM | SK-OV-3 > 100 µM | SF-268 > 100 µM | RPMI-8226 > 100 µM

N#CCCN(CCC#N)c1ccc(/C=N\c2nc(-c3ccccc3)cs2)cc1
inactive: NCI-H460 > 100 µM | SF-295 45.7 µM | OVCAR-8 > 100 µM | NCI-H522 49.3 µM | TK-10 81.7 µM | HCT-116 > 100 µM | NCI-H226 > 100 µM | UACC-257 > 100 µM | SK-MEL-5 > 100 µM | SNB-75 29.8 µM | A549 > 100 µM | 786-0 > 100 µM | SK-OV-3 > 100 µM | SF-268 > 100 µM | RPMI-8226 > 100 µM

COc1cc(O)c(C(=O)CC(C)=O)c(OC)c1
inactive: NCI-H460 > 100 µM | SF-295 > 100 µM | OVCAR-8 > 100 µM | NCI-H522 > 100 µM | TK-10 > 100 µM | HCT-116 > 100 µM | CCRF-CEM > 100 µM | NCI-H226 > 100 µM | UACC-257 > 100 µM | SK-MEL-5 > 100 µM | SNB-75 76.4 µM | A549 > 100 µM | 786-0 > 100 µM | SK-OV-3 > 100 µM | SF-268 > 100 µM | RPMI-8226 > 100 µM

CCCCCCCCCCCCC(SCCNC(=O)CCNC(=O)C(O)C(C)(C)COP(=O)(O)OP(=O)(O)OCC1OC(n2cnc3c(N)ncnc32)C(O)C1OP(=O)(O)O)C(=O)NCC(N)=O (centres undefined)
inactive: NCI-H460 91.6 µM | SF-295 > 100 µM | OVCAR-8 > 100 µM | NCI-H522 69.2 µM | TK-10 > 100 µM | HCT-116 41.3 µM | CCRF-CEM > 100 µM | NCI-H226 79.6 µM | UACC-257 > 100 µM | SK-MEL-5 > 100 µM | SNB-75 2.6 µM | A549 > 100 µM | 786-0 > 100 µM | SK-OV-3 18.6 µM | SF-268 > 100 µM

O=C(NC1CCCCC1)NS(=O)(=O)c1ccc2c(c1)CCC2 [GLYHEXAMIDE]
inactive: SF-295 > 100 µM | OVCAR-8 > 100 µM | NCI-H522 > 100 µM | TK-10 > 100 µM | SR > 100 µM | CCRF-CEM > 100 µM | NCI-H226 > 100 µM | UACC-257 > 100 µM | SNB-75 > 100 µM | A549 > 100 µM | 786-0 > 100 µM | SK-OV-3 > 100 µM | SF-268 > 100 µM | RPMI-8226 > 100 µM
